From patent US20240217951A1, “PCSK9 INHIBITORS AND METHODS OF USE THEREOF” (AstraZeneca AB, priority 2022, published 2024) come the findings set out here.

A value given as a limit tells only on which side of the number the result lay.

For experiment [1], the target named is T1, potassium ion channel hERG (human Ether-á-go-go-Related Gene) (Homo sapiens, UniProt Q12809).
T1 construct: expressed in transfected cells; host or cells: Chinese hamster ovary K1 (CHO)
Description: Assay 5 - hERG assay (SyncroPatch 384PE patch clamp, CHO cells). Format: cell-based. The following applies: geometric mean; CHO cells over-expressing hERG; read-out: Assay 5 (hERG Hu CHO IF EPh CR-Syncro) GMean IC50. Put shortly:
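Automated high-throughput patch clamp on CHO-K1 cells overexpressing hERG at room temperature, KF/KCl internal with escin, NMDG-containing external at pH 7.4. Six-point cumulative compound addition, 0.33% DMSO final; wells kept only with seal >30 MΩ, Z′ >0.4 and current >0.2 nA.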

A further experiment deals with T2, human PCSK9 (Homo sapiens, UniProt Q8NBP7).
T2 construct: biotinylated human PCSK9 (31-692)-Avi-His6; His6 (C)
Description: Assay 2 - Biophysical human PCSK9 assay (SPR, Biacore). Format: binding. The conditions noted are these: geometric mean; SPR at 30° C; read-out: Assay 2 (PCSK9 BIAcore DBA CR) GMean Kd. Here is the method:
Assay 2—Biophysical Human PCSK9 Assay
The SPR binding experiments were performed on a Biacore S200 optical biosensor unit at 30° C. A Series S Sensor Chip SA that is designed to bind biotinylated molecules for interaction analysis in Biacore systems was equilibrated at room temperature prior to use. The running buffer for protein tethering and subsequent ligand binding experiments was 10 mM HEPES pH 7.4, 150 mM NaCl, 0.05% (v/v) Tween 20 pH 7.4.
For the surface tethering of PCSK9, biotinylated human PCSK9 (31-692)-Avi-His6 at a concentration of 0.5 mg/mL was used. Prior to the surface tethering, the surface was exposed to a solution of 50 mM NaOH, 500 mM NaCl via 3 consecutive injections of this solution with a contact time of 60 s and a flowrate of 10 μL min^−1 to remove non-conjugated streptavidin. The PCSK9 protein was diluted to a concentration of 20 μg/mL using running buffer and injected with a contact time of 180-300 s and a flowrate of 10 μL min^−1 over a single flow channel (typically flow channel 2 or flow channel 4) with the aim to achieve protein capture levels of >5000 response units (RU). Remaining biotin binding sites were blocked via 2 consecutive injections of a 10 μM D-biotin solution in running buffer with a contact time of 60 s and a flowrate of 10 μL min^−1 over all flow-channels. Flow-channels 1 and 3 typically served as a reference surface throughout the subsequent binding experiments.
The binding experiments were all performed at a flow rate of 30 PL min^−1 and by employing the method of single-cycle kinetics. This approach involves the sequential injection of a compound concentration series without regeneration steps. A contact time between 90-150 s was selected, which was followed by a 40 min dissociation phase to allow for a proper estimation of the dissociation rate constant. Test compounds were delivered in DMSO at a concentration of 10 mM and a digital dispenser HP D300 was used to set up the compound concentration series using 6 concentrations. The tested concentrations have been 30, 100, 300, 1000, 3000 and 10000 nM. Prior to injecting any compound, the surfaces were equilibrated by injecting running buffer over them in three separate pulses. The data collection rate was set to 10 Hz.
The raw sensorgrams of the compound injections were first subjected to reference subtraction (subtracting the signal from flow channel 1 and/or 3 from the signal from channels 2 and/or 4 respectively) and then blank subtraction (subtracting the signal from injecting DMSO controls from the reference subtracted data). The resulting double-referenced sensorgrams were then fitted using a 1:1 binding interaction model using the manufactures software package to extract kinetic- and affinity data. Active compounds have been defined by creating a detectable binding signal at the highest compound concentration ([…]) of 3 RUs. Kinetic- and affinity data on active compounds are only provided for those compounds where the binding signal at the highest compound concentration ([…]) is 50% of the theoretical maximum binding signal for a 1:1 binding interaction (Rmax, typically between 15-20 RUs) in order to enable a proper fitting of the data.

The next experiment has as its target PCSK9 (Homo sapiens, UniProt Q8NBP7, G670E/V474I). Description: biochemical.
Experiment [2] addresses GSK3β (Glycogen synthase kinase-3 beta) (Homo sapiens, UniProt P49841). Description: Assay 6 - GSK3β assay (ThermoFisher Z-Lyte). Format: biochemical. The following applies: geometric mean; ATP Conc: 10 μM; read-out: Assay 6 (GSK3β FRET-Z-Lyte CR) GMean IC50 (μM) ATP Conc: 10. Put shortly:
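Z-Lyte fluorescence kinase assay with 0.22-0.92 ng GSK3β and 2 μM Ser/Thr 09 peptide in 50 mM HEPES pH 7.5, 10 mM MgCl2, 1 mM EGTA, 0.01% BRIJ-35. Kinase reaction 60 min at room temperature, then 60 min development. 10-point 3-fold titration from 10 μM in 1% DMSO, fitted to a sigmoidal dose-response curve.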

T2 sequence (Q8NBP7 31-692): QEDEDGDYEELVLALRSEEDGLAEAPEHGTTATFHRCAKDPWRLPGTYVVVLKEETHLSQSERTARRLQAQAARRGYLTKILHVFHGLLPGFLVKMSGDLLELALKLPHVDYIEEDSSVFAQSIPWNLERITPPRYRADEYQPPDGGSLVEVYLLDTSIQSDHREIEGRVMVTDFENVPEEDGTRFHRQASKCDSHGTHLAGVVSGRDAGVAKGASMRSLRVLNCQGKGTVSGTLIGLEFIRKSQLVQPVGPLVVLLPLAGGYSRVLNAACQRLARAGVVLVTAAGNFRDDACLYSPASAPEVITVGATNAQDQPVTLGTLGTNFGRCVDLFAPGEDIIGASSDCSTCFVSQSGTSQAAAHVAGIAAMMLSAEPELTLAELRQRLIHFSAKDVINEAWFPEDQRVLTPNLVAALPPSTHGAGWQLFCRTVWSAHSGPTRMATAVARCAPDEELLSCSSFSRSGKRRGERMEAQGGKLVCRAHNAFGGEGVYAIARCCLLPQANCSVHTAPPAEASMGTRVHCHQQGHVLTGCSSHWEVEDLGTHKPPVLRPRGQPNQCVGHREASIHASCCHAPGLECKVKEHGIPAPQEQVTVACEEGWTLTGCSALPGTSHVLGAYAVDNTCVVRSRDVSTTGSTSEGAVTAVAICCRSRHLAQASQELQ
Sequence of PCSK9 (Q8NBP7 with tags, fused parts or gaps V474I/G670E): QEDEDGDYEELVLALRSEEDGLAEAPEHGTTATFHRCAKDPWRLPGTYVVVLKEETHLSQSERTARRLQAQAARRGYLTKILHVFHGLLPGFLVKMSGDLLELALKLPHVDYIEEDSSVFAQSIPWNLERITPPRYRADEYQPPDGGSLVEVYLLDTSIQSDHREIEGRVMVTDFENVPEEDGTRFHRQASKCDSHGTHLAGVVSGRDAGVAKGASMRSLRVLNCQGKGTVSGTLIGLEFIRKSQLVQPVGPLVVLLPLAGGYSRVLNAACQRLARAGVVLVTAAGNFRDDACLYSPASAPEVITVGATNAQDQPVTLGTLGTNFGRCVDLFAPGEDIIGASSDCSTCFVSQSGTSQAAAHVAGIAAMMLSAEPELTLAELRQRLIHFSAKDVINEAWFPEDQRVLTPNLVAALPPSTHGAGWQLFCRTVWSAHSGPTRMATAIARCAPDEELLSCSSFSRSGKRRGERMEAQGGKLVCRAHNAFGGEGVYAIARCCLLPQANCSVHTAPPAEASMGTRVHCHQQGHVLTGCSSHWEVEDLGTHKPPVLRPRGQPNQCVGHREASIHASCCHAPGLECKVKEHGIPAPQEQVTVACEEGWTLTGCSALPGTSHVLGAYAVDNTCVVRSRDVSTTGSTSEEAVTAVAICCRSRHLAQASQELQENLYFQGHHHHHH
Sequence of GSK3β (Glycogen synthase kinase-3 beta) (P49841 whole entry): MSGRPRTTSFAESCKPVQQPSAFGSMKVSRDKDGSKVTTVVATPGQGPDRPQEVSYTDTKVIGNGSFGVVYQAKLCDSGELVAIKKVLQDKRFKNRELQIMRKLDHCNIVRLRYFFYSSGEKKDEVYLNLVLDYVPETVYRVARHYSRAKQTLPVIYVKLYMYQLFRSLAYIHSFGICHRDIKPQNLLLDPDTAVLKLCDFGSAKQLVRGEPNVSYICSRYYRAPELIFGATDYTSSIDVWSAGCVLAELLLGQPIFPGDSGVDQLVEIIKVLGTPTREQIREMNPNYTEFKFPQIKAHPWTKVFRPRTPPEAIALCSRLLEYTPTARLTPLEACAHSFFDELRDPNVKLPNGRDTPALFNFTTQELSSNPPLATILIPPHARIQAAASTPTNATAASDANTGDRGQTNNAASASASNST
T1 sequence (Q12809 whole entry): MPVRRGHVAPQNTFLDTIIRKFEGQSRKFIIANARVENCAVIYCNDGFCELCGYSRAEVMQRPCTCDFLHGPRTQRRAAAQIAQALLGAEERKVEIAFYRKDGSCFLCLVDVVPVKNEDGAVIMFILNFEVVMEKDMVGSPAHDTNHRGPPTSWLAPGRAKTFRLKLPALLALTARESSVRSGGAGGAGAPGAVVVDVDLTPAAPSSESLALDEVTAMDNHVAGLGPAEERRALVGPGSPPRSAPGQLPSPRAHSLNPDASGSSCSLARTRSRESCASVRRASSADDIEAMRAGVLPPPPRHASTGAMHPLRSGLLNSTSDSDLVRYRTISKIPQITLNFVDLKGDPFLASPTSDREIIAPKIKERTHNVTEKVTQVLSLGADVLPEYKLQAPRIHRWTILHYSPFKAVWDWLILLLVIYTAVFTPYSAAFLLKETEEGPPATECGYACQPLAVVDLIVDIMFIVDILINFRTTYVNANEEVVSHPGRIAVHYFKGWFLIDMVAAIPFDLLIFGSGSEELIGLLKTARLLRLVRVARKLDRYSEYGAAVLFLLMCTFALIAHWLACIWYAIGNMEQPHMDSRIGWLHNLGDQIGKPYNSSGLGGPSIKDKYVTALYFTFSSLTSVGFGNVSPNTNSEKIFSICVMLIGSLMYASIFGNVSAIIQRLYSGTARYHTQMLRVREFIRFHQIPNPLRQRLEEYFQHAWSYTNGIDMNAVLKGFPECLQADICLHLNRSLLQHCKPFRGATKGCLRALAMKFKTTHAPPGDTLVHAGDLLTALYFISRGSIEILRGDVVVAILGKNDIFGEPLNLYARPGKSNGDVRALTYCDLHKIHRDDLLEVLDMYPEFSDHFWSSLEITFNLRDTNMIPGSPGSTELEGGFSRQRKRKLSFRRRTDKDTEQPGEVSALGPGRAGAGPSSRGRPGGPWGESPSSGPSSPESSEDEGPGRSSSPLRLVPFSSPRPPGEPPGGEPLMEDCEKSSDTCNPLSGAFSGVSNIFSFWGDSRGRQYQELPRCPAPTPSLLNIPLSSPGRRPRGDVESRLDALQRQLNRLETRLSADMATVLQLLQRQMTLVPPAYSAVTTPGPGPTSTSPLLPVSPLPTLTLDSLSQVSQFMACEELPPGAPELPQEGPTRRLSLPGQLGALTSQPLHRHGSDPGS

Turning to `N#Cc1cnc(N[C@H]2CC[C@H](Nc3ccc(-n4ccccc4=O)cn3)C2)cn1` [Example 5, 5-(((1S,3S)-3-((2-Oxo-2H-[1,3′-bipyridin]-6′-yl)amino)cyclopentyl)amino)pyrazine-2-carbonitrile], the 50% inhibitory concentration (IC50) in experiment [1] turned out to be 18500 nM; at PCSK9, 499 nM; in experiment [2], 0.713 µM. Moreover, the Kd on human PCSK9 stood at 412 nM.

For `Cc1cnc(N[C@H]2CC[C@H](Nc3ccc(N4CC(=O)N(C)C4=O)cn3)C2)cn1` [Example 39, 3-Methyl-1-(6-(((1S,3S)-3-((5-methylpyrazin-2-yl)amino)cyclopentyl)amino)pyridin-3-yl)imidazolidine-2,4-dione], the values for the half-inhibitory concentration (IC50) (in experiment [1]; against PCSK9; in experiment [2]) were more than 40000 nM, 34 nM and more than 10 µM, respectively. Moreover, the Kd on human PCSK9 stood at 33 nM.

Turning to `CN1C(=O)CN(c2ccc(N[C@H]3CC[C@H](Nc4cnc(OC(F)F)cn4)C3)nc2)C1=O` [Example 92, 1-(6-(((1S,3S)-3-((5-(Difluoromethoxy)pyrazin-2-yl)amino)cyclopentyl)amino)pyridin-3-yl)-3-methylimidazolidine-2,4-dione], the IC50 in experiment [1] is 4400 nM; against PCSK9, 59 nM; in experiment [2], more than 10 µM. Also, the equilibrium dissociation constant (Kd) on human PCSK9 is 52 nM.

With `O=c1ccccn1-c1ccc(N[C@H]2CC[C@H](Nc3cnc4ccc(Cl)cc4n3)C2)nc1` [Example 139, 6′-(((1S,3S)-3-((7-Chloroquinoxalin-2-yl)amino)cyclopentyl)amino)-2H-[1,3′-bipyridin]-2-one], the IC50 in experiment [1] was 4600 nM; at PCSK9, 235 nM; in experiment [2], 0.292 µM. On human PCSK9, the dissociation constant (Kd) came out at 460 nM.

Consider `O=c1ccccn1-c1ccc(N[C@H]2CC[C@H](Nc3cnc(Cl)cn3)C2)nc1` [Example 3, 6′-(((1S,3S)-3-((5-Chloropyrazin-2-yl)amino)cyclopentyl)amino)-2H-[1,3′-bipyridin]-2-one], for which the IC50 in experiment [1] is 24600 nM; at PCSK9, 40 nM; in experiment [2], more than 10 µM. Besides, the Kd at human PCSK9 was found to be 39 nM.

For `N#Cc1cncc(N[C@H]2CC[C@H](Nc3ccc(-n4ccccc4=O)cn3)C2)n1` [Example 142, 6-(((1S,3S)-3-((2-Oxo-2H-[1,3′-bipyridin]-6′-yl)amino)cyclopentyl)amino)pyrazine-2-carbonitrile], the values for the 50% inhibitory concentration (IC50) (in experiment [1]; on PCSK9; in experiment [2]) were more than 35400 nM, 1610 nM and 0.764 µM, respectively. For the same compound, the dissociation constant Kd at human PCSK9 amounted to 2420 nM.

Turning to `Cc1nc(N[C@H]2CC[C@H](Nc3ccc(-n4ccccc4=O)cn3)C2)cnc1Cl` [Example 102, 6′-(((1S,3S)-3-((5-Chloro-6-methylpyrazin-2-yl)amino)cyclopentyl)amino)-2H-[1,3′-bipyridin]-2-one], the IC50 in experiment [1] was 17700 nM; against PCSK9 it was 85 nM; in experiment [2], more than 10 µM. Moreover, at human PCSK9, the dissociation constant (Kd) was found to be 122 nM.

For the compound `Cc1cnc(N[C@H]2CC[C@H](Nc3ccc(-n4nc(C)ccc4=O)cn3)C2)cn1` [Example 231, 6-Methyl-2-(6-(((1S,3S)-3-((5-methylpyrazin-2-yl)amino)cyclopentyl)amino)pyridin-3-yl)pyridazin-3 (2H)-one], the values for the IC50 (in experiment [1]; against PCSK9; in experiment [2]) were more than 40100 nM, 46 nM and more than 10 µM, respectively. Besides, at human PCSK9, the dissociation constant Kd was found to be 35 nM.

In the case of `Cc1cnc(N[C@H]2CC[C@H](Nc3ccc(-n4nccc(C#N)c4=O)cn3)C2)cn1` [Example 278, 2-(6-(((1S,3S)-3-((5-Methylpyrazin-2-yl)amino)cyclopentyl)amino)pyridin-3-yl)-3-oxo-2,3-dihydropyridazine-4-carbonitrile], the IC50 in experiment [1] was more than 40100 nM; against PCSK9, 13 nM; in experiment [2] it was more than 10 µM. Besides, at human PCSK9, the Kd was 12 nM.

As to `O=c1ccccn1-c1ccc(N[C@H]2CC[C@H](Nc3cnc4cccnc4n3)C2)nc1` [Example 143, 6′-(((1S,3S)-3-(Pyrido[2,3-b]pyrazin-3-ylamino)cyclopentyl)amino)-2H-[1,3′-bipyridin]-2-one], the half-inhibitory concentration (IC50) in experiment [1] is more than 40000 nM; against PCSK9, 2390 nM; in experiment [2], more than 10 µM. Moreover, on human PCSK9, the Kd came out at 1540 nM.

On to `Cc1cnc(N[C@H]2CC[C@H](Nc3ccc(-n4ccccc4=O)cn3)C2)cn1` [Example 4, 6′-(((1S,3S)-3-((5-Methylpyrazin-2-yl)amino)cyclopentyl)amino)-2H-[1,3′-bipyridin]-2-one], for which the IC50 in experiment [1] was more than 40000 nM; at PCSK9 it was 104 nM; in experiment [2] it was more than 10 µM. Moreover, the Kd on human PCSK9 stood at 81 nM.

With `O=c1ccccn1-c1ccc(N[C@H]2CC[C@H](Nc3cnc(OC(F)F)cn3)C2)nc1` [Example 86, 6′-(((1S,3S)-3-((5-(Difluoromethoxy)pyrazin-2-yl)amino)cyclopentyl)amino)-2H-[1,3′-bipyridin]-2-one], the IC50 in experiment [1] was 13400 nM; against PCSK9 it was 73 nM; in experiment [2], more than 10 µM. On human PCSK9, the dissociation constant Kd turned out to be 64 nM.

Regarding `Cc1ncc(N[C@H]2CC[C@H](Nc3ccc(-n4ccccc4=O)cn3)C2)nc1C` [Example 2, 6′-(((1S,3S)-3-((5,6-Dimethylpyrazin-2-yl)amino)cyclopentyl)amino)-2H-[1,3′-bipyridin]-2-one], the IC50 was more than 40000 nM in experiment [1], 112 nM on PCSK9 and more than 10 µM in experiment [2]. Also, the Kd at human PCSK9 stood at 64 nM.

As to `Cc1ncc(N[C@H]2CC[C@H](Nc3ccc(N4C(=O)CN(C)C4=O)cn3)C2)nc1C` [Example 22, 3-(6-(((1S,3S)-3-((5,6-Dimethylpyrazin-2-yl)amino)cyclopentyl)amino)pyridin-3-yl)-1-methylimidazolidine-2,4-dione], the IC50 was more than 40000 nM in experiment [1], 107 nM against PCSK9 and more than 10 µM in experiment [2]. In addition, the Kd on human PCSK9 came out at 93 nM.

As to `CN1CC(=O)N(c2ccc(N[C@H]3CC[C@H](Nc4cnc(Cl)cn4)C3)nc2)C1=O` [Example 100, 3-(6-(((1S,3S)-3-((5-Chloropyrazin-2-yl)amino)cyclopentyl)amino)pyridin-3-yl)-1-methylimidazolidine-2,4-dione], the IC50 is more than 40100 nM in experiment [1], 28 nM on PCSK9 and more than 10 µM in experiment [2]. Also, the Kd on human PCSK9 was 45 nM.

For the compound `O=c1ccccn1-c1ccc(N[C@H]2CC[C@H](Nc3cnc(OC(F)(F)F)cn3)C2)nc1` [Example 111, 6′-(((1S,3S)-3-((5-(Trifluoromethoxy)pyrazin-2-yl)amino)cyclopentyl)amino)-2H-[1,3′-bipyridin]-2-one], the results for the concentration for half-maximal inhibition (IC50) (in experiment [1]; on PCSK9; in experiment [2]) were 20800 nM, 149 nM and more than 10 µM, respectively. For the same compound, at human PCSK9, the dissociation constant Kd came out at 128 nM.

As for `Cc1cncc(N[C@H]2CC[C@H](Nc3ccc(-n4ccccc4=O)cn3)C2)n1` [Example 141, 6′-(((1S,3S)-3-((6-Methylpyrazin-2-yl)amino)cyclopentyl)amino)-2H-[1,3′-bipyridin]-2-one], the half-maximal inhibitory concentration (IC50) in experiment [1] is more than 40000 nM; against PCSK9, 592 nM; in experiment [2], more than 10 µM. Besides, the Kd at human PCSK9 worked out at 405 nM.
